Structures are written as SMILES.

Experiment [1] concerns the target Gamma-aminobutyric acid receptor subunit alpha-1/alpha-2/beta-2/gamma-2 (Homo sapiens, UniProt P14867+P18507+P47869+P47870). The class given is protein-complex assay.
Experiment [2] concerns the target Sodium-dependent serotonin transporter (Homo sapiens, UniProt P31645).
Experiment [3] has as its target T1, 5-hydroxytryptamine receptor 1A (Homo sapiens, UniProt P08908).
T1 sequence (P08908 whole entry): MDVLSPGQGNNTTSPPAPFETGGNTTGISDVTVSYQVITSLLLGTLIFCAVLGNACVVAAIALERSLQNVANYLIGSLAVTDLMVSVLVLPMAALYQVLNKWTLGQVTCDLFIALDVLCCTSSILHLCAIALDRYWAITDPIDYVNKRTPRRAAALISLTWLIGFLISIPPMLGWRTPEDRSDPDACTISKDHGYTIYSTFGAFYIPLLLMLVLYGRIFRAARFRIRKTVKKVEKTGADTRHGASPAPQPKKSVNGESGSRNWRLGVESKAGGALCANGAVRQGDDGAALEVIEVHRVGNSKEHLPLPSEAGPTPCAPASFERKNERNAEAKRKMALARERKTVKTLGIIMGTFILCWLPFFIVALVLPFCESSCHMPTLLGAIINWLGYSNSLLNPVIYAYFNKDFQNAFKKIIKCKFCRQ

A further experiment deals with T2, Progesterone receptor (Homo sapiens, UniProt P06401).
T2 sequence (P06401 whole entry): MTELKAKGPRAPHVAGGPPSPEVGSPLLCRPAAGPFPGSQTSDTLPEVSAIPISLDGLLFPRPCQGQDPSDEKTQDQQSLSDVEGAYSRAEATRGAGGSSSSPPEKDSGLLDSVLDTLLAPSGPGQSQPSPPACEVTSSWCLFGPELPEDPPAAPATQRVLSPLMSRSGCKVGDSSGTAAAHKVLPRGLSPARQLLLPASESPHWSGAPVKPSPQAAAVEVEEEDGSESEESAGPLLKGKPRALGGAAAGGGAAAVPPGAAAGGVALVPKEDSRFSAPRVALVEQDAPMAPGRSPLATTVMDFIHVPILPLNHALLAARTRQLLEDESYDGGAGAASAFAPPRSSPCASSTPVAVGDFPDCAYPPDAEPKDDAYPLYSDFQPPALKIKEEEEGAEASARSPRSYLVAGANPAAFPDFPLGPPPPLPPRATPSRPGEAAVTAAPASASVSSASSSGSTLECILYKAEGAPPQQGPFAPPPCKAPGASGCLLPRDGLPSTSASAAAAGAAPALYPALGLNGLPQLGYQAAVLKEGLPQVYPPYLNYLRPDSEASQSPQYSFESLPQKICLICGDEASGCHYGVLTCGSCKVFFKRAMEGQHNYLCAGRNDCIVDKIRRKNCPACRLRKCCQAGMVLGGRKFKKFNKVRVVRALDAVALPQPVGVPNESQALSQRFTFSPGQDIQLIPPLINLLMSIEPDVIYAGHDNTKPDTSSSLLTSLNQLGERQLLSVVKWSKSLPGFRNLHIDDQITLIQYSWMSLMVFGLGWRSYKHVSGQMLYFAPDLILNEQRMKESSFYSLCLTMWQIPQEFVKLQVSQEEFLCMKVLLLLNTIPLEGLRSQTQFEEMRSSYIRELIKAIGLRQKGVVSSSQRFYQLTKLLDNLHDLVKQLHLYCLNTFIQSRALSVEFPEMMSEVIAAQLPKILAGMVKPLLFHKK

Experiment [4] deals with Gamma-aminobutyric acid receptor subunit alpha-1 (Rattus norvegicus, UniProt P62813).
Further: assay procedure not described here.

Sodium-dependent serotonin transporter, sequence (P31645 whole entry): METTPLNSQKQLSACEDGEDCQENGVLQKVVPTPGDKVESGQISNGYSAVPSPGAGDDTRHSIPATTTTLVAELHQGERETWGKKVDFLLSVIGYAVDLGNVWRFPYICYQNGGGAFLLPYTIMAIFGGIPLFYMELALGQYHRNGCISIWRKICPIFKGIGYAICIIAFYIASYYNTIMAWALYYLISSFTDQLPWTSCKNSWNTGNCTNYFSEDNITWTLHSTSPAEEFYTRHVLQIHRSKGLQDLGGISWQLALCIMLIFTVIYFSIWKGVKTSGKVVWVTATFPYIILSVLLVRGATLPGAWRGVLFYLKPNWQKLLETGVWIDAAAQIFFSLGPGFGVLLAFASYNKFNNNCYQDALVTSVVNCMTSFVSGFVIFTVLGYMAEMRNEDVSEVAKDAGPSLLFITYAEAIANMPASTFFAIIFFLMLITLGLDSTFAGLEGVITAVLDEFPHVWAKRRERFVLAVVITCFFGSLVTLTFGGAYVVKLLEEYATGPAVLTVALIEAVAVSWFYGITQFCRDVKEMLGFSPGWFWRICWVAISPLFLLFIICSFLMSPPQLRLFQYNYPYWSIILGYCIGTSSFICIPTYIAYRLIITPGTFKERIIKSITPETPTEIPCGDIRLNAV
Gamma-aminobutyric acid receptor subunit alpha-1/alpha-2/beta-2/gamma-2, sequence (P14867 whole entry): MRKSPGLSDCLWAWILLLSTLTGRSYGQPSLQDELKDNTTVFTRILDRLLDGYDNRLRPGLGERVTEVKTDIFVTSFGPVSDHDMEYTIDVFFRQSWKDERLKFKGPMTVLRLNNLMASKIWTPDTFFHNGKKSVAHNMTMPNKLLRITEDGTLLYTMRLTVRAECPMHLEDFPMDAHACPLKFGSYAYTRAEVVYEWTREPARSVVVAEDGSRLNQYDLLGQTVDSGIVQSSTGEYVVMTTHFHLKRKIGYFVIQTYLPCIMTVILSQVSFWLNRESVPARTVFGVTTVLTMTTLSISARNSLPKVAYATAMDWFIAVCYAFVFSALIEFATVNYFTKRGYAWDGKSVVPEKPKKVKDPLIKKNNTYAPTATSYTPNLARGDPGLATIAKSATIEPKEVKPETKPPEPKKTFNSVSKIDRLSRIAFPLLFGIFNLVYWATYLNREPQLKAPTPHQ
Gamma-aminobutyric acid receptor subunit alpha-1/alpha-2/beta-2/gamma-2, sequence (P47870 whole entry): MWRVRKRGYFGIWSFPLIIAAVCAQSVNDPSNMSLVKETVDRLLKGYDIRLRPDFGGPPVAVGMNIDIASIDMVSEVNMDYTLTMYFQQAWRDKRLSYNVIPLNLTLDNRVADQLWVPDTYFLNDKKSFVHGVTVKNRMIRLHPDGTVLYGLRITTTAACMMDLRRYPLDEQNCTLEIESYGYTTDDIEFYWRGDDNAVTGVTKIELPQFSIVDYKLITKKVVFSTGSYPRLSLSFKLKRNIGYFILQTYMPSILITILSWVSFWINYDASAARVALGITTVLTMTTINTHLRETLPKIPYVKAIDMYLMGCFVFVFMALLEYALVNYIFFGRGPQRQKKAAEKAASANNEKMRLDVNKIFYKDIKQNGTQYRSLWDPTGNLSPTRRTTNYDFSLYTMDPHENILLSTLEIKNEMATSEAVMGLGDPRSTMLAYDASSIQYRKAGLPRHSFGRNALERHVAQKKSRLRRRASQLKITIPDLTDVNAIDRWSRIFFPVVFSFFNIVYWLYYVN
Gamma-aminobutyric acid receptor subunit alpha-1/alpha-2/beta-2/gamma-2, sequence (P18507 whole entry): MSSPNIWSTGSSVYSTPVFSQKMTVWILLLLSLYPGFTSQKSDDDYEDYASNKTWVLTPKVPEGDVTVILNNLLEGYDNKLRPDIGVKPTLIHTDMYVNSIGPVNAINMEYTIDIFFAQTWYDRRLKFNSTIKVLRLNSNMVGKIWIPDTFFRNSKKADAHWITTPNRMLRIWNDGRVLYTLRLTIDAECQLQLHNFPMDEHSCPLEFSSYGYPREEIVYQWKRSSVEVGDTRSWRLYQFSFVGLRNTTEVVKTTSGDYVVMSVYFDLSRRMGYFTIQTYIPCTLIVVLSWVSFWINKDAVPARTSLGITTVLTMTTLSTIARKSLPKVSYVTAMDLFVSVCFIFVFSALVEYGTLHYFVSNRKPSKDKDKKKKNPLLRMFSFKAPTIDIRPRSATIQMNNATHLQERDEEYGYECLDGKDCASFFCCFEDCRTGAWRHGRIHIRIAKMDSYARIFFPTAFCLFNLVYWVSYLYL
Gamma-aminobutyric acid receptor subunit alpha-1/alpha-2/beta-2/gamma-2, sequence (P47869 whole entry): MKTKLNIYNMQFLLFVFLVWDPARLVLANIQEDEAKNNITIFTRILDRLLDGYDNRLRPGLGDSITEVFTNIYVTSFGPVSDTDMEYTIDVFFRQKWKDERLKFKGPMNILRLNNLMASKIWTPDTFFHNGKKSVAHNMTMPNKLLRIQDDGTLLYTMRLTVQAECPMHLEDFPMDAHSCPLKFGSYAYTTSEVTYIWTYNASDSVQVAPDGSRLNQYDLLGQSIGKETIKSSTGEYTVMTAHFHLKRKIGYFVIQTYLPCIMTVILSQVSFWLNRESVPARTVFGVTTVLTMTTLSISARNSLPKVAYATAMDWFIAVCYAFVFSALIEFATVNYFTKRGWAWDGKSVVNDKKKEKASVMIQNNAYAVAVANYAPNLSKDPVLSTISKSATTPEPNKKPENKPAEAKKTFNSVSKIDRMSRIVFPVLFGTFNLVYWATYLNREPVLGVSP
Gamma-aminobutyric acid receptor subunit alpha-1, sequence (P62813 whole entry): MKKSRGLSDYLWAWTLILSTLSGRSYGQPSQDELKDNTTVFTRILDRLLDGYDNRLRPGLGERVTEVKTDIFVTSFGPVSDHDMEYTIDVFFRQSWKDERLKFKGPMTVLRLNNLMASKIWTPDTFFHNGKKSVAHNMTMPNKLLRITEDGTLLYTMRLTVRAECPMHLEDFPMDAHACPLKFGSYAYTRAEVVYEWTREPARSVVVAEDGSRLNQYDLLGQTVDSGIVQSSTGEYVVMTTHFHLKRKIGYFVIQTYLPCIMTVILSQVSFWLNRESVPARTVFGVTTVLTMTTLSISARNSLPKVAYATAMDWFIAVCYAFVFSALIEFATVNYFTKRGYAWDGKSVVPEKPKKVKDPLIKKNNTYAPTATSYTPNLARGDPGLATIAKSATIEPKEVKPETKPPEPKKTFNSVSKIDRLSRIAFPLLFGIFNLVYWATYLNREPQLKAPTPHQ

For orientation: AC50 means the concentration at which the activity in the assay is half-maximal. A low value points to greater potency. Turning to `CC(C)N(CCNC(=O)CN1CCCC1=O)C(C)C`, the AC50 in experiment [1] and in experiment [2] was over 30 µM throughout.
Consider `CCC[C@H](NC(=O)[C@@H]1[C@H]2CCC[C@H]2CN1C(=O)[C@@H](NC(=O)[C@@H](NC(=O)c1cnccn1)C1CCCCC1)C(C)(C)C)C(=O)C(=O)NC1CC1`, for which the figures for the AC50 (in experiment [3]; at Progesterone receptor) were over 10 µM and over 30 µM, respectively.
For `Cc1cc(N)c2ccccc2[n+]1CCCCCCCCCC[n+]1c(C)cc(N)c2ccccc21`, the AC50 is 24.6 µM in experiment [4] and 0.185 µM in experiment [2].
On to `CCOC(=O)[C@H](CCc1ccccc1)N[C@@H](C)C(=O)N(CC(=O)O)C1Cc2ccccc2C1`, for which the concentration at half-maximal activity (AC50) in experiment [4] and in experiment [2] was over 30 µM throughout.
On to `C=CCSCC1Nc2cc(Cl)c(S(N)(=O)=O)cc2S(=O)(=O)N1` (centres undefined) [ALTHIAZIDE], for which the AC50 in experiment [4] and in experiment [2] was over 30 µM each time.
Regarding `CCN(CCCc1ccccc1)CCCc1ccccc1` [ALVERINE], the AC50 is over 30 µM in experiment [1] and 1.7 µM in experiment [2].
For `CN1CCC(=C2c3ccccc3CCc3cccnc32)CC1` [AZATADINE], the values for the AC50 (in experiment [3]; at Progesterone receptor) were 5.69 µM and over 30 µM, respectively.
For `CCCCC(=O)O[C@]1(C(=O)CO)[C@@H](C)C[C@H]2[C@@H]3CCC4=CC(=O)C=C[C@]4(C)[C@@]3(F)[C@@H](O)C[C@@]21C` [BETAMETHASONE VALERATE], the AC50 was over 10 µM in experiment [3] and 0.13 µM on Progesterone receptor.
Take `COc1cc(N2CCC(N3CCN(C)CC3)CC2)ccc1Nc1ncc(Cl)c(Nc2ccccc2P(C)(C)=O)n1` [BRIGATINIB]: the AC50 in experiment [4] and in experiment [2] was over 30 µM in each case.
For `CN(C)CCOC(c1ccccc1)c1ccc(Br)cc1` (centres undefined) [BROMODIPHENHYDRAMINE], the AC50 in experiment [4] is over 30 µM; in experiment [2], 0.207 µM.
Consider `CNC1=Nc2ccc(Cl)cc2C(c2ccccc2)=[N+]([O-])C1` [CHLORDIAZEPOXIDE], for which the results for the AC50 (in experiment [3]; at Progesterone receptor) were over 10 µM and over 30 µM, respectively.
Regarding `CC(=O)O[C@]1(C(C)=O)CC[C@H]2[C@@H]3C=C(Cl)C4=CC(=O)CC[C@]4(C)[C@H]3CC[C@@]21C` [CHLORMADINONE ACETATE], the concentration at half-maximal activity (AC50) in experiment [4] is over 30 µM.
Regarding `NC(=O)OCC(O)COc1ccc(Cl)cc1` (centres undefined) [CHLORPHENESIN CARBAMATE], the concentration at half-maximal activity (AC50) in experiment [4] and in experiment [2] was over 30 µM throughout.
Molecule `Cc1ccccc1N1CCN(CCc2nnc3n2CCCC3)CC1` [DAPIPRAZOLE] gave an AC50 in experiment [1] of over 30 µM.
For `CCN(CC)C(=S)S` [DITIOCARB], the half-maximal activity concentration (AC50) in experiment [4] and in experiment [2] was over 30 µM each time.
For the molecule `C=C1CC[C@H](O)C/C1=C/C=C1\CCC[C@]2(C)[C@@H]([C@H](C)/C=C/[C@H](C)C(C)C)CC[C@@H]12` [ERGOCALCIFEROL], in experiment [4], the AC50 was over 30 µM.
Regarding `CC(C(=O)O)c1ccc(-c2ccccc2)c(F)c1` (centres undefined) [FLURBIPROFEN], in experiment [4], the AC50 was over 30 µM.
As for `CCC(=O)O[C@]1(C(=O)CCl)[C@@H](C)C[C@H]2[C@@H]3C[C@H](F)C4=CC(=O)C=C[C@]4(C)[C@@]3(F)[C@@H](O)C[C@@]21C` [HALOBETASOL PROPIONATE], the AC50 in experiment [1] and in experiment [2] was over 30 µM each time.
In the case of `CC(N)Cc1ccc(O)cc1` (centres undefined) [HYDROXYAMPHETAMINE], the AC50 in experiment [4] and in experiment [2] was over 30 µM throughout.
As to `Cc1cc(NC(=O)C2=C(O)c3ccccc3S(=O)(=O)N2C)no1` [ISOXICAM], the AC50 in experiment [4] and in experiment [2] was over 30 µM in each case.
As to `COc1cc2c(cc1OC)CC(=O)N(CCCN(C)C[C@H]1Cc3cc(OC)c(OC)cc31)CC2` [IVABRADINE], the values for the AC50 in experiment [4] and in experiment [2] were over 30 µM and 11.9 µM, respectively.
`CC(C)(C)NC[C@H](O)COc1cccc2c1CCCC2=O` [LEVOBUNOLOL] yielded a concentration at half-maximal activity (AC50) in experiment [1] of over 30 µM.
The same measure, in the same setting: to `Cc1c(N(C)CS(=O)(=O)O)c(=O)n(-c2ccccc2)n1C` [METAMIZOLE] belongs over 30 µM.
As to `CN1C(=O)/C(=N\NC(N)=S)c2ccccc21` [METHISAZONE], the half-maximal activity concentration (AC50) is 12.3 µM in experiment [4] and over 30 µM in experiment [2].
In experiment [1], `COC(=O)c1ccc(O)cc1` [METHYLPARABEN] returned an AC50 of over 30 µM.
Regarding `O=[N+]([O-])c1ccc(O)c2ncccc12` [NITROXOLINE], the AC50 in experiment [4] and in experiment [2] was over 30 µM throughout.
Consider `CCCc1nc(C(C)(C)O)c(C(=O)O)n1Cc1ccc(-c2ccccc2-c2nnn[nH]2)cc1` [OLMESARTAN], for which the AC50 in experiment [1] and in experiment [2] was over 30 µM in each case.
For the molecule `NCC(CC(=O)O)c1ccccc1` (centres undefined) [PHENIBUT], the AC50 in experiment [4] and in experiment [2] was over 30 µM in each case.
`CC[C@@H]([C@H](C)O)n1ncn(-c2ccc(N3CCN(c4ccc(OC[C@@H]5CO[C@@](Cn6cncn6)(c6ccc(F)cc6F)C5)cc4)CC3)cc2)c1=O` [POSACONAZOLE] had an AC50 in experiment [4] of over 30 µM.
Turning to `CCCN[C@H]1CCc2nc(N)sc2C1` [PRAMIPEXOLE], the AC50 in experiment [3] stood at 10.5 µM. This counts as double-digit micromolar.
With `Cc1ncc(COP(=O)(O)O)c(C=O)c1O` [PYRIDOXAL PHOSPHATE ANHYDROUS], the AC50 in experiment [1] and in experiment [2] was over 30 µM throughout.
Regarding `COc1ccc(CN(CCN(C)C)c2ccccn2)cc1` [PYRILAMINE], the AC50 in experiment [4] is over 30 µM.
For the molecule `c1ccc2c(c1)CCc1ccccc1N2C1CN2CCC1CC2` (centres undefined) [QUINUPRAMINE], the AC50 in experiment [1] is over 30 µM; in experiment [2], 0.507 µM.
Consider `C[C@H](Cc1cc2c(c(C(N)=O)c1)N(CCCO)CC2)NCCOc1ccccc1OCC(F)(F)F` [SILODOSIN], for which the AC50 in experiment [1] and in experiment [2] was over 30 µM each time.
In the case of `CC1=CCC(C(C)(C)O)CC1O` (centres undefined) [SOBREROL], the AC50 in experiment [1] and in experiment [2] was over 30 µM throughout.
In the case of `CCOC(=O)N1CSC[C@H]1C(=O)O` [TELMESTEINE], the AC50 in experiment [1] and in experiment [2] was over 30 µM throughout.
As to `CCCC(CCC)C(N)=O` [VALPROMIDE], the AC50 in experiment [3] was over 10 µM; on Progesterone receptor, over 30 µM.

For the origin of these results see ChEMBL document CHEMBL5291721, “A preclinical secondary pharmacology resource illuminates target-adverse drug reaction associations of marketed drugs” (Nat Commun, 2023).
